Where “and” joins values, the source holds several entries; their conditions need not be identical. Equal values may be shown once. Read-outs that look alike come from different tables or passages of the source.
What was measured:
[1] = molecular target: T1, CDK12 (Homo sapiens, UniProt Q16531+Q9NYV4); test: Label-free quantitative mass spectrometry in MDA-MB-231 cells, CDK12; assay type: cell-based
T1 construct: endogenous in cells; host or cells: MDA-MB-231
Summary of the method: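 MDA-MB-231 cells treated 5 h with 1 µM cyclin K degrader or DMSO. Lysates digested with LysC and trypsin, then analysed by label-free diaPASEF LC-MS on a TimsTOF Pro2 with directDIA search and MS1 precursor quantification. Protein abundances scaled and analysed with limma.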

[2] = molecular target: CDK12–cyclin K (Homo sapiens, UniProt Q9NYV4); test: Lanthascreen kinase binding assay, CDK12; conditions: for Lanthascreen raw signal, sheet CDK12: duplicates
CDK12–cyclin K, sequence (Q9NYV4 713-1052): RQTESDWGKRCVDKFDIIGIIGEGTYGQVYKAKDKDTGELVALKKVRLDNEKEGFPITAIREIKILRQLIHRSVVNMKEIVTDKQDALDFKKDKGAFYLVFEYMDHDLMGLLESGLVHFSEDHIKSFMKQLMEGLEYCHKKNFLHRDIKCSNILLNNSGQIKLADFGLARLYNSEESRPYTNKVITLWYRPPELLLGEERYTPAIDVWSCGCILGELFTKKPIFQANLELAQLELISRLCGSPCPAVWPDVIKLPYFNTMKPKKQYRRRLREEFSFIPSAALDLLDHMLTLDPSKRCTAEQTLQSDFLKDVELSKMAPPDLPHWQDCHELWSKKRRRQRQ
CDK12–cyclin K, sequence (O75909 1-267 partner limits assumed): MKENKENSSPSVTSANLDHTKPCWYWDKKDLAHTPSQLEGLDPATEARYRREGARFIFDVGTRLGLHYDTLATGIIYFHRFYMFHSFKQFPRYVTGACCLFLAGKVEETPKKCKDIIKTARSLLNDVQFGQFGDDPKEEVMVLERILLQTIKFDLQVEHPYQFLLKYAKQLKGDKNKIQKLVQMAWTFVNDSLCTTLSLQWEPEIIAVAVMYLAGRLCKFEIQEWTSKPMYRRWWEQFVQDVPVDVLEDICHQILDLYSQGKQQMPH
Protocol: Lanthascreen experiments were performed using commercially available reagents (Thermo Fisher) and according to the manufacturer’s instructions.

[3] = system: cyclin K–eGFP degradation reporter; test: Cyclin K reporter stability analysis (dual-color cyclin K–eGFP reporter); assay type: cell-based, human; conditions: source data sheet correlations; read-out: DC50
Summary of the method: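 Readout: flow-cytometric eGFP/mCherry ratio (geometric means, round mCherry+ gate) relative to the average of three DMSO wells. Reporter line was HEK293T–Cas9, treated 5 h with compound.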

T1 sequence (Q9NYV4 whole entry): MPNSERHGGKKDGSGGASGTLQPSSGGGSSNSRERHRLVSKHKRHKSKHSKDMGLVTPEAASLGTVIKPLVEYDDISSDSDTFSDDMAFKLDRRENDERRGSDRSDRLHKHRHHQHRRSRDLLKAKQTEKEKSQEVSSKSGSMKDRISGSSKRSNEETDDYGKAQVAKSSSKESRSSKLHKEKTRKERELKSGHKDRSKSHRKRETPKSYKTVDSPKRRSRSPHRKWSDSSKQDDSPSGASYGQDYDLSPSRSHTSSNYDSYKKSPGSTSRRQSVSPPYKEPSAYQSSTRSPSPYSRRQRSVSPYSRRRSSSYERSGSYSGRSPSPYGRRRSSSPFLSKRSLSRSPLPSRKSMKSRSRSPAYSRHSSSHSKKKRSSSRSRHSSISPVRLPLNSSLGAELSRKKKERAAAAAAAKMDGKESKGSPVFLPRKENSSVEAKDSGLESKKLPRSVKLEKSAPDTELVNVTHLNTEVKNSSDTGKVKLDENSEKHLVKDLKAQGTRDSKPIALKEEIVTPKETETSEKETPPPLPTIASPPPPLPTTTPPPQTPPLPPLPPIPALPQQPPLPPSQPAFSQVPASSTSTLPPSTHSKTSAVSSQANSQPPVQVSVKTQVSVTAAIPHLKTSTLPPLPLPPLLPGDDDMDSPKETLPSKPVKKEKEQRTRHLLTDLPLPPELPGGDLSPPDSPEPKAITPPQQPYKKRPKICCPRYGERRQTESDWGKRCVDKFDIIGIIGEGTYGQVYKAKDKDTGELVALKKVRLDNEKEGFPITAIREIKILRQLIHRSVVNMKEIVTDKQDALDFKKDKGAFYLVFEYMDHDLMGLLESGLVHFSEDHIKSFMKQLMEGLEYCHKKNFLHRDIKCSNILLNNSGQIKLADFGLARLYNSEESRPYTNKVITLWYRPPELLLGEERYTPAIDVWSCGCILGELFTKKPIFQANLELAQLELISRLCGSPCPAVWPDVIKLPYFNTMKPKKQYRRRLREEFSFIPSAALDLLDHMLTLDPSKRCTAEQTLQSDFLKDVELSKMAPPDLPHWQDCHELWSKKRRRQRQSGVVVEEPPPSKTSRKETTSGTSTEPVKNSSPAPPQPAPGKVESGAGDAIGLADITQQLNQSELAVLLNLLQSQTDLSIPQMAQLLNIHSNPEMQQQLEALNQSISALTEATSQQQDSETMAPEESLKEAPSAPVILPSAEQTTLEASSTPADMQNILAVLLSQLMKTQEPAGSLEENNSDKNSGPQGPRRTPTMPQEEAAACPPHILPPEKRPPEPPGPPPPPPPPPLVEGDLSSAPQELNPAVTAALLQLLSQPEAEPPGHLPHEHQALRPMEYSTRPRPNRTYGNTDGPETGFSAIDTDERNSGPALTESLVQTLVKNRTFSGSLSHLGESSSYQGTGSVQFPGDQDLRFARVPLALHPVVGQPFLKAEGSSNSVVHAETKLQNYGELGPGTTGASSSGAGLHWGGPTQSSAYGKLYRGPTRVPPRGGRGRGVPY
T1 sequence (O75909 whole entry partner): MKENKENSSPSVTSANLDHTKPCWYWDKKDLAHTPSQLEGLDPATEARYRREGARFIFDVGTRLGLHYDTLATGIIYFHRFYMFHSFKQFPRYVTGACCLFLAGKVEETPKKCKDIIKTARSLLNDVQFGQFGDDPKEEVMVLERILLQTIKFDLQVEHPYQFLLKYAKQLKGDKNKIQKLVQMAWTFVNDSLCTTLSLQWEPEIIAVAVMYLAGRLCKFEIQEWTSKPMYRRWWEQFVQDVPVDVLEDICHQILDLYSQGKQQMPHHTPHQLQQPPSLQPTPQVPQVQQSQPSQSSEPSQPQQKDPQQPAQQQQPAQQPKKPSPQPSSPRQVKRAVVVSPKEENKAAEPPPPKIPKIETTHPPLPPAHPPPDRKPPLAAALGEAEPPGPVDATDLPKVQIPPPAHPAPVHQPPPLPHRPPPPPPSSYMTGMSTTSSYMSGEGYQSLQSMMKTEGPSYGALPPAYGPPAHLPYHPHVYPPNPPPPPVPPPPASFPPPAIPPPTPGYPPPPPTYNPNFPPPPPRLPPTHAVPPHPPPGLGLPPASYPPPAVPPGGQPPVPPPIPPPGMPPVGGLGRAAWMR
T1 sequence (Q16531 2-1140 limits assumed): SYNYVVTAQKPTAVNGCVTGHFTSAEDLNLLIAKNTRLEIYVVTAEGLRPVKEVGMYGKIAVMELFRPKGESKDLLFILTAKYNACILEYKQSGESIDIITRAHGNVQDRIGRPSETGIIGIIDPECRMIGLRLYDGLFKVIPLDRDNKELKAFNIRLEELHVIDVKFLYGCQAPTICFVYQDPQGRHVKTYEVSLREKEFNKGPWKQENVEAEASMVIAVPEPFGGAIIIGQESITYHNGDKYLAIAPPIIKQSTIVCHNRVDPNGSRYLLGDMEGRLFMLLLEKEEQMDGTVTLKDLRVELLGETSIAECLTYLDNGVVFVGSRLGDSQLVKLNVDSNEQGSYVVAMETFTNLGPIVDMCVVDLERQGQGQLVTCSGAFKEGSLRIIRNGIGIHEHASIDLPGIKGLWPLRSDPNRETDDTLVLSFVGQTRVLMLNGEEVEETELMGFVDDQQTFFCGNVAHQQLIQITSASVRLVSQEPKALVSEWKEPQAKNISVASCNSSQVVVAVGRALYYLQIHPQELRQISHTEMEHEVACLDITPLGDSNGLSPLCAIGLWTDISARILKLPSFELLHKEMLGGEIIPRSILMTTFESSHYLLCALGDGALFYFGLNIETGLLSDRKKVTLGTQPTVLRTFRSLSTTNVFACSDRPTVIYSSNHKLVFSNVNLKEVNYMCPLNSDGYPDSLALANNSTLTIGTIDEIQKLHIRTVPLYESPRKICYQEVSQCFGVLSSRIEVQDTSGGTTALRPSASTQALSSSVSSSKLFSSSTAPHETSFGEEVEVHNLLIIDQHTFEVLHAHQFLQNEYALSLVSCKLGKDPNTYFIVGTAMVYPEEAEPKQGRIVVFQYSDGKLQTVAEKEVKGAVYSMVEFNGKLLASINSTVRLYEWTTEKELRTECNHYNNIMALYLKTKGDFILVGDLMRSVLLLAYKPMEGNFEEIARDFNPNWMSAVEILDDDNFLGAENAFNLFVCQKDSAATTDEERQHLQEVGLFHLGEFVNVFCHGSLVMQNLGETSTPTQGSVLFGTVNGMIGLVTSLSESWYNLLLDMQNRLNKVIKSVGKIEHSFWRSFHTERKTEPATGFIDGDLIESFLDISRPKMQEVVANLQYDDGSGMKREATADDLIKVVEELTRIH

Cc1cccc(Nc2nc(CC(=O)Nc3ncc(C)s3)cs2)n1 [HQ461]
CDK12 peptide count ([1]; label-free quantitative MS, replicate values): 703.981 and 744.171
CDK12 peptide count (DMSO-normalised) ([1]; normalised to DMSO = 1, replicate values): 0.7821 and 0.7686
IC50 ([2]; Lanthascreen, read-out: CDK12 inhibition): > 10000 nM
IC50 ([2]; Supplementary Table 2, read-out: Lanthascreen IC50 [nM] CDK12): > 10000 nM
Lanthascreen raw signal, sheet CDK12 ([2]; compound 0.038147 nM, series r13): 0.01223 and 0.01089
Lanthascreen raw signal, sheet CDK12 ([2]; compound 0.152588 nM, series r13): 0.01192 and 0.01181
Lanthascreen raw signal, sheet CDK12 ([2]; compound 0.610352 nM, series r13): 0.01147 and 0.01206
Lanthascreen raw signal, sheet CDK12 ([2]; compound 1.02544 nM, series r1): 0.009388 and 0.008109
Lanthascreen raw signal, sheet CDK12 ([2]; compound 3.15521 nM, series r1): 0.008061 and 0.009006
Lanthascreen raw signal, sheet CDK12 ([2]; compound 9.46563 nM, series r1): 0.008944 and 0.009513
Lanthascreen raw signal, sheet CDK12 ([2]; compound 9.76563 nM, series r13): 0.01062 and 0.01153
Lanthascreen raw signal, sheet CDK12 ([2]; compound 31.5521 nM, series r1): 0.009567 and 0.009846
Lanthascreen raw signal, sheet CDK12 ([2]; compound 39.0625 nM, series r13): 0.01003 and 0.0116
Lanthascreen raw signal, sheet CDK12 ([2]; compound 99.3891 nM, series r1): 0.009103 and 0.01044
Lanthascreen raw signal, sheet CDK12 ([2]; compound 156.25 nM, series r13): 0.0115 and 0.0116
Lanthascreen raw signal, sheet CDK12 ([2]; compound 315.521 nM, series r1): 0.007883 and 0.008557
Lanthascreen raw signal, sheet CDK12 ([2]; compound 625 nM, series r13): 0.01055 and 0.01154
Lanthascreen raw signal, sheet CDK12 ([2]; compound 2500 nM, series r13): 0.01098 and 0.01126
Lanthascreen raw signal, sheet CDK12 ([2]; compound 3155.21 nM, series r1): 0.006491 and 0.00695
Lanthascreen raw signal, sheet CDK12 ([2]; compound 10000 nM, series r13): 0.01006 and 0.01041
Lanthascreen raw signal, sheet CDK12 ([2]; compound 10002 nM, series r1): 0.00959 and 0.009612
DC50 [3]: 0.493 µM
